Measured values as given in patent US11548870B2, “Compounds useful as inhibitors of helios protein” (Bristol-Myers Squibb Company, priority 2019, dated 2023).
Read-outs that look alike come from different tables or passages of the source.

Key:
Ikaros = target: T1, Ikaros (Homo sapiens, UniProt Q13422); experiment: Helios Cellular Degradation Assay, Ikaros readout (flow cytometry, Ikaros-Alexa488 antibody staining, 72 h); format: cell-based; settings: for Dmax: Jurkat, read-out: Ikaros Dmax
T1 construct: fluorescently labelled antibodies against Helios and Ikaros; endogenous in cells; host or cells: Jurkat cells
T1 sequence (Q96SW2 whole entry partner): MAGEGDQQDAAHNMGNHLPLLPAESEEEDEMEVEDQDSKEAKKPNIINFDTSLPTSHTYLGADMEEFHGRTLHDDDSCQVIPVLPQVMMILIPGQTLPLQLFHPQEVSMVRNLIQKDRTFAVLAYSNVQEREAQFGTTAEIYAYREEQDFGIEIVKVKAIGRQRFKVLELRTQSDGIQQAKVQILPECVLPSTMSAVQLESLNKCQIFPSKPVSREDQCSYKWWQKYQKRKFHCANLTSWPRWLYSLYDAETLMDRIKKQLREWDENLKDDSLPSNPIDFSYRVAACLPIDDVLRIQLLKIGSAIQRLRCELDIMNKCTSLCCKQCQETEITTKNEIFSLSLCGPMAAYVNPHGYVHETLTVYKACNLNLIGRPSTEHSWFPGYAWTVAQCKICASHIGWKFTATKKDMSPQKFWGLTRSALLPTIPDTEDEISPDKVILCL
T1 sequence (Q16531 whole entry partner): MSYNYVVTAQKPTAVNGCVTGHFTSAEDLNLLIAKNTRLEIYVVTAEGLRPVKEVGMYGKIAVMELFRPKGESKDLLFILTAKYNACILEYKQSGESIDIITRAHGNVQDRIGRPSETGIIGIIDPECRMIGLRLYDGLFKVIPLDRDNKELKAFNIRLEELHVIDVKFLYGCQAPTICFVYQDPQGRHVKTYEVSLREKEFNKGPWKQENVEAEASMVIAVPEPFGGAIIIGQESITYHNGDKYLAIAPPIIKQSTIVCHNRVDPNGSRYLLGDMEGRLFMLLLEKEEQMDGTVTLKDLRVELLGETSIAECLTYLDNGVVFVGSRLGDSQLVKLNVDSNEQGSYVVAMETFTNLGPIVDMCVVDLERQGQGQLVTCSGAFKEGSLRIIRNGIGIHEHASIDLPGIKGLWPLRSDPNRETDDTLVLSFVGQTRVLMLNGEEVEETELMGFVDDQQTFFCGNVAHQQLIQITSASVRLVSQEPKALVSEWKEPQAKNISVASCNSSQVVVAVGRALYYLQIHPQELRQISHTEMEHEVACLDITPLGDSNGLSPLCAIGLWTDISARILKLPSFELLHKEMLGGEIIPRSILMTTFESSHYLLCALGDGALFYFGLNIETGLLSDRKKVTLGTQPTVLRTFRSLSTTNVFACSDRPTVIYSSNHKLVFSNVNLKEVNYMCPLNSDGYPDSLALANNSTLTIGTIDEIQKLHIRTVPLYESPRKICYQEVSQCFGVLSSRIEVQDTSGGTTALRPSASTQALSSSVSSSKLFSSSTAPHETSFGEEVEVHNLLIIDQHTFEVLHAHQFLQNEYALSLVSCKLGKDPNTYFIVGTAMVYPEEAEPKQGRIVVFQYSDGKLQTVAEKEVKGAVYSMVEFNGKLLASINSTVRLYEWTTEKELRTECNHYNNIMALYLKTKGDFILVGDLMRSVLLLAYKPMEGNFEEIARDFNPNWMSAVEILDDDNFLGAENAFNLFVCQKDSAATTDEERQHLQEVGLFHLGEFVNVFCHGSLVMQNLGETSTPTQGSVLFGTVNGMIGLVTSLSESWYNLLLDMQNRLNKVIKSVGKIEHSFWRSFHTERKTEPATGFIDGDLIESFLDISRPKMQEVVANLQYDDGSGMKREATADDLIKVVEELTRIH
T1 sequence (Q13422 whole entry): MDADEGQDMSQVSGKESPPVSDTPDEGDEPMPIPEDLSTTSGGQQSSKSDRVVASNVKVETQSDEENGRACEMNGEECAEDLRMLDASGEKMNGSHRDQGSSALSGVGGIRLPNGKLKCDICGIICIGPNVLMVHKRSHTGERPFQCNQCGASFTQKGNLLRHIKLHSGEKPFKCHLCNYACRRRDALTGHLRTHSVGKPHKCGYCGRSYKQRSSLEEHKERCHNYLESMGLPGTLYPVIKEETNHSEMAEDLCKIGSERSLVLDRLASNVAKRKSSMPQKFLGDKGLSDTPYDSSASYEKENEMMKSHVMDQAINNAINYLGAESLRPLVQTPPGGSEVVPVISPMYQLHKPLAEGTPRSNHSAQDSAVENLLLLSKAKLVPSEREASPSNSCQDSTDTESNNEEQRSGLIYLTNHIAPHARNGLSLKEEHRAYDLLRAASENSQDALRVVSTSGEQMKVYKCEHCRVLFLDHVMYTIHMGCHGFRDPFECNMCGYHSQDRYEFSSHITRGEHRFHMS
In short: (§1)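 Jurkat cells (80,000/well, RPMI+10% FBS) were exposed to compound for 72 h at 37 °C, then fixed, permeabilized and co-stained for 1 h with Ikaros-Alexa488 and Helios-PE antibodies. Intracellular protein levels were read by flow cytometry.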

Helios = target: T2, Helios (Homo sapiens, UniProt Q96SW2+Q9UKS7); experiment: Helios Cellular Degradation Assay (flow cytometry, Helios-PE antibody staining, 72 h); format: cell-based; settings: for Dmax: Jurkat, read-out: Helios Dmax
T2 construct: fluorescently labelled antibodies against Helios and Ikaros; endogenous in cells; host or cells: Jurkat cells
T2 sequence (Q9UKS7 whole entry): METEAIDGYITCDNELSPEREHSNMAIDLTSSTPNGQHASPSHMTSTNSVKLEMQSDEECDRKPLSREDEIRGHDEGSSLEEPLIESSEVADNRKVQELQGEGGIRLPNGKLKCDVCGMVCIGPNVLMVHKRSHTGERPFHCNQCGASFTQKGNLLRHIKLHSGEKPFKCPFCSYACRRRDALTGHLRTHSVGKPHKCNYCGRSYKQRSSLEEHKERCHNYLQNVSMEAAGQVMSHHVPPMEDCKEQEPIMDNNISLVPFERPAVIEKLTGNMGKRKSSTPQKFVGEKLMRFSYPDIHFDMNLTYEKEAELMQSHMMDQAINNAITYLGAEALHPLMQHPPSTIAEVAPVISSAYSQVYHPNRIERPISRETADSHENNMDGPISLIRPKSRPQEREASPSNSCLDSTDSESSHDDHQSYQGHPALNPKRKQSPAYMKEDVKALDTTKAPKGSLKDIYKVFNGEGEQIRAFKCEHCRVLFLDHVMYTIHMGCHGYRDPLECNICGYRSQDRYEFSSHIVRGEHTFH
T2 sequence (Q96SW2 whole entry): as the sequence (Q96SW2 whole entry partner) above
T2 sequence (Q16531 whole entry partner): as the sequence (Q16531 whole entry partner) above
In short: as §1

[1] = Jurkat cells, 72 h incubation, flow cytometry

Structure (SMILES) | DC50 (Ikaros; [1]) | Dmax (Ikaros; [1]) | DC50 (Helios; [1]) | Dmax (Helios; [1]) | Ikaros Dmax (Ikaros; [1]) | Helios Dmax (Helios; [1]) | Dmax (Ikaros) | Dmax (Helios)
CC1(C)CCN(Cc2ccnc(-c3ccc4c(c3)CN(C3CCC(=O)NC3=O)C4=O)c2)CC1 (stereo not drawn) [Example 82, 3-(5-(4-((4,4-dimethylpiperidin-1-yl)methyl)pyridin-2-yl)-1-oxoisoindolin-2-yl)piperidine-2,6-dione] | > 10 µM | 17% | 0.009 µM | 89% |  |  |  | 
O=C1CCC(N2Cc3cc(-c4cc(CN5CC(c6ccccc6)C5)ccn4)ccc3C2=O)C(=O)N1 (stereo not drawn) [Example 83, 3-(1-oxo-5-(4-((3-phenylazetidin-1-yl)methyl)pyridin-2-yl)isoindolin-2-yl)piperidine-2,6-dione] | > 10 µM | 20% | 0.007 µM | 91% |  |  |  | 
O=C1CCC(N2Cc3cc(-c4cc(CN[C@@H]5CCC[C@@H]5c5ccccc5)ccn4)ccc3C2=O)C(=O)N1 (stereo partly drawn) [Example 84, 3-(1-oxo-5-(4-((((1R,2R)-2-phenylcyclopentyl)amino)methyl)pyridin-2-yl)isoindolin-2-yl)piperidine-2,6-dione] | > 10 µM | 4% | 0.04 µM | 69% |  |  |  | 
CC1(C)CCCN(Cc2ccnc(-c3ccc4c(c3)CN(C3CCC(=O)NC3=O)C4=O)c2)C1 (stereo not drawn) [Example 85, 3-(5-(4-((3,3-dimethylpiperidin-1-yl)methyl)pyridin-2-yl)-1-oxoisoindolin-2-yl)piperidine-2,6-dione] | > 10 µM | 7% | > 10 µM | 20% |  |  |  | 
O=C1CCC(N2Cc3cc(-c4cc(CNC5CCCC5)ccn4)ccc3C2=O)C(=O)N1 (stereo not drawn) [Example 86, 3-(5-(4-((cyclopentylamino)methyl)pyridin-2-yl)-1-oxoisoindolin-2-yl)piperidine-2,6-dione] | > 10 µM | 20% | 0.019 µM | 91% |  |  |  | 
O=C1CCC(N2Cc3cc(-c4cc(CNC5CCCCC5)ccn4)ccc3C2=O)C(=O)N1 (stereo not drawn) [Example 87, 3-(5-(4-((cyclohexylamino)methyl)pyridin-2-yl)-1-oxoisoindolin-2-yl) piperidine-2,6-dione] | > 10 µM | 12% | 0.029 µM | 100% |  |  |  | 
CC(C)(C)NCc1ccnc(-c2ccc3c(c2)CN(C2CCC(=O)NC2=O)C3=O)c1 (stereo not drawn) [Example 89, 3-(5-(4-((tert-butylamino)methyl)pyridin-2-yl)-1-oxoisoindolin-2-yl)piperidine-2,6-dione] | > 10 µM |  | 0.103 µM |  |  |  | 8% | 71%
O=C1CCC(N2Cc3cc(-c4cc(CNCC(c5ccccc5)c5ccccc5)ccn4)ccc3C2=O)C(=O)N1 (stereo not drawn) [Example 90, 3-(5-(4-(((2,2-diphenylethyl)amino)methyl)pyridin-2-yl)-1-oxoisoindolin-2-yl)piperidine-2,6-dione] | > 10 µM | 17% | 0.213 µM | 61% |  |  |  | 
O=C1CCC(N2Cc3cc(-c4cc(CNCCc5ccccc5Cl)ccn4)ccc3C2=O)C(=O)N1 (stereo not drawn) [Example 93, 3-(5-(4-(((2-chlorophenethyl)amino)methyl)pyridin-2-yl)-1-oxoisoindolin-2-yl)piperidine-2,6-dione] | > 10 µM | 23% | 0.009 µM | 103% |  |  |  | 
COc1ccc(CCNCc2ccnc(-c3ccc4c(c3)CN(C3CCC(=O)NC3=O)C4=O)c2)cc1 (stereo not drawn) [Example 95, 3-(5-(4-(((4-methoxyphenethyl)amino)methyl)pyridin-2-yl)-1-oxoisoindolin-2-yl)piperidine-2,6-dione] | > 10 µM | 17% | 0.034 µM | 94% |  |  |  | 
O=C1CCC(N2Cc3cc(-c4cc(CNCCCc5ccccc5)ccn4)ccc3C2=O)C(=O)N1 (stereo not drawn) [Example 98, 3-(1-oxo-5-(4-(((3-phenylpropyl)amino)methyl)pyridin-2-yl)isoindolin-2-yl)piperidine-2,6-dione] | > 10 µM | 8% | 0.006 µM | 91% |  |  |  | 
O=C1CCC(N2Cc3cc(-c4cc(CNC5CCC(O)CC5)ccn4)ccc3C2=O)C(=O)N1 (stereo not drawn) [Example 101, 3-(5-(4-(((4-hydroxycyclohexyl)amino)methyl)pyridin-2-yl)-1-oxoisoindolin-2-yl)piperidine-2,6-dione] | > 10 µM | 22% | 0.059 µM | 89% |  |  |  | 

Continued, in another order:

DC50 (Ikaros; [1]) | Dmax (Ikaros; [1]) | DC50 (Helios; [1]) | Dmax (Helios; [1]) | Ikaros Dmax (Ikaros; [1]) | Helios Dmax (Helios; [1]) | Structure (SMILES) | Dmax (Ikaros) | Dmax (Helios)
> 10 µM | 27% | 0.072 µM | 102% |  |  | O=C1CCC(N2Cc3cc(-c4cc(CNCCN5CCOCC5)ccn4)ccc3C2=O)C(=O)N1 (stereo not drawn) [Example 88, 3-(5-(4-(((2-morpholinoethyl)amino)methyl)pyridin-2-yl)-1-oxoisoindolin-2-yl)piperidine-2,6-dione] |  | 
> 10 µM | 4% | 3.53 µM | 60% |  |  | CC(=O)NCCNCc1ccnc(-c2ccc3c(c2)CN(C2CCC(=O)NC2=O)C3=O)c1 (stereo not drawn) [Example 91, N-(2-(((2-(2-(2,6-dioxopiperidin-3-yl)-1-oxoisoindolin-5-yl)pyridin-4-yl)methyl)amino)ethyl)acetamide] |  | 
> 10 µM | 11% | 0.209 µM | 92% |  |  | O=C1CCC(N2Cc3cc(-c4cc(CNCCO)ccn4)ccc3C2=O)C(=O)N1 (stereo not drawn) [Example 92, 3-(5-(4-(((2-hydroxyethyl)amino)methyl)pyridin-2-yl)-1-oxoisoindolin-2-yl) piperidine-2,6-dione] |  | 
> 10 µM | 11% | 0.035 µM | 74% |  |  | O=C1CCC(N2Cc3cc(-c4cc(CNCCc5ccc(Cl)cc5)ccn4)ccc3C2=O)C(=O)N1 (stereo not drawn) [Example 94, 3-(5-(4-(((4-chlorophenethyl)amino)methyl)pyridin-2-yl)-1-oxoisoindolin-2-yl)piperidine-2,6-dione] |  | 
> 10 µM | 25% | 0.019 µM | 94% |  |  | O=C1CCC(N2Cc3cc(-c4cc(CNCCc5ccc(O)cc5)ccn4)ccc3C2=O)C(=O)N1 (stereo not drawn) [Example 96, 3-(5-(4-(((4-hydroxyphenethyl)amino)methyl)pyridin-2-yl)-1-oxoisoindolin-2-yl) piperidine-2,6-dione] |  | 
> 10 µM | 11% | 0.008 µM | 90% |  |  | CC(C)CCNCc1ccnc(-c2ccc3c(c2)CN(C2CCC(=O)NC2=O)C3=O)c1 (stereo not drawn) [Example 97, 3-(5-(4-((isopentylamino)methyl)pyridin-2-yl)-1-oxoisoindolin-2-yl)piperidine-2,6-dione] |  | 
> 10 µM | 6% | 0.419 µM | 65% |  |  | N#CCNCc1ccnc(-c2ccc3c(c2)CN(C2CCC(=O)NC2=O)C3=O)c1 (stereo not drawn) [Example 99, 2-(((2-(2-(2,6-dioxopiperidin-3-yl)-1-oxoisoindolin-5-yl)pyridin-4-yl)methyl)amino)acetonitrile] |  | 
> 10 µM |  | 6.13 µM |  | 6% | 55% | NC(=O)CNCc1ccnc(-c2ccc3c(c2)CN(C2CCC(=O)NC2=O)C3=O)c1 (stereo not drawn) [Example 100, 2-(((2-(2-(2,6-dioxopiperidin-3-yl)-1-oxoisoindolin-5-yl)pyridin-4-yl)methyl)amino) acetamide] |  | 
> 10 µM | 10% | 0.011 µM | 97% |  |  | O=C1CCC(N2Cc3cc(-c4cc(CNCCc5cccc(Cl)c5)ccn4)ccc3C2=O)C(=O)N1 (stereo not drawn) [Example 102, 3-(5-(4-(((3-chlorophenethyl)amino)methyl)pyridin-2-yl)-1-oxoisoindolin-2-yl)piperidine-2,6-dione] |  | 
